In this experiment the test system is HCV replicon. Briefly: Replicon based assay of HCV replication inhibition (NPT ELISA). Format: cell-based, Hepatitis C virus. The conditions noted are these: Hepatitis C virus, Huh-7, 72 h, Table I; Huh-7 HCV replicon-containing cells, three days; read-out: Activity. The gist of the method:
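Huh-7 cells carrying a bicistronic HCV replicon (neo, EMCV-IRES-driven NS3–NS5B) treated overnight after seeding with usually 6 concentrations, 10 to 0.03 micromolar, for three days at 37° C without G418. Replication read as NPT level by captured ELISA; matched-DMSO wells and interferon alpha as controls.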
In the case of `c1ccc(N2CCC(Nc3nc(-c4cccnc4)cs3)=N2)cc1` [compound 143, 4,5-dihydro-1-phenyl-N-(4-(pyridin-3-yl)thiazol-2-yl)-1H-pyrazol-3-amine], the EC50 was over 10 µM.

For `Fc1ccc(-c2csc(Nc3ccc(Oc4ccccc4)cc3)n2)cc1` [compound 144, 4-(4-fluorophenyl)-N-(4-phenoxyphenyl)thiazol-2-amine], the EC50 was under 1 µM.

With `Fc1ccc(-c2csc(Nc3nc(-c4ccc(Cl)cc4)cs3)n2)cc1` [compound 145, 4-(4-chlorophenyl)-N-(4-(4-fluorophenyl)thiazol-2-yl)thiazol-2-amine], the EC50 is over 10 µM.

Regarding `Fc1ccc(-c2csc(NC3=NN(c4ccccc4)CC3)n2)cc1` [compound 146, N-(4-(4-fluorophenyl)thiazol-2-yl)-4,5-dihydro-1-phenyl-1H-pyrazol-amine], the EC50 is over 10 µM.

`CCOC(=O)Cc1csc(Nc2nc(-c3ccc(Cl)cc3)cs2)n1` [compound 147, ethyl 2-(2-(4-(4-chlorophenyl)thiazol-2-ylamino)thiazol-4-yl)acetate]: the EC50 was over 10 µM.

Consider `CCCCCOc1ccc(Nc2ncc(C(=O)O)s2)cc1C(F)(F)F` [compound 148, 2-(3-(trifluoromethyl)-4-(pentyloxy)phenylamino)thiazole-5-carboxylic acid], for which the EC50 is over 10 µM.

Turning to `CCCCCOc1ccc(Nc2ncc(C(=O)Nc3ccc(Cl)cc3)s2)cc1C(F)(F)F` [compound 149, 2-(3-(trifluoromethyl)-4-(pentyloxy)phenylamino)-N-(4-chlorophenyl)thiazole-5-carboxamide], the EC50 was under 1 µM.

`CCCCCOc1ccc(Nc2ncc(C(=O)Nc3ccc(C#N)cc3)s2)cc1C(F)(F)F` [compound 150, 2-(3-(trifluoromethyl)-4-(pentyloxy)phenylamino)-N-(4-cyanophenyl)thiazole-5-carboxamide]: the EC50 was under 1 µM.

As to `CCCCCOc1ccc(Nc2ncc(C(=O)NCc3ccc(S(N)(=O)=O)cc3)s2)cc1C(F)(F)F` [compound 151, N-(4-aminosulfonyl-benzyl)-2-(4-(pentyloxy)-3-(trifluoromethyl)phenylamino)-thiazole-5-carboxamide], the EC50 is over 10 µM.

With `CCCCCOc1ccc(Nc2nc(C(=O)NCc3ccc(S(N)(=O)=O)cc3)cs2)cc1C(F)(F)F` [compound 153, 2-(4-(pentyloxy)-3-(trifluorornethyl)phenylamino)-N-(4-aminosulfonylbenzyl)thiazole-4-carboxamide], the EC50 is 1 to 10 µM.

For `CCCCCOc1ccc(Nc2nc(-c3ccc(C)nc3)cs2)cc1C(F)(F)F` [compound 154, N-(3-(trifluoromethyl)-4-(pentyloxy)phenyl)-4-(6-methylpyridin-3-yl)thiazol-2-amine], the EC50 was under 1 µM.

Consider `CCCCCOc1ccc(Nc2nc(-c3ccc(C(=O)O)cc3)cs2)cc1C(F)(F)F` [compound 155, 4-(2-(3-(trifluoromethyl)-4-(pentyloxy)phenylamino)thiazol-4-yl)benzoic acid], for which the EC50 was under 1 µM.

As for `CCCCCOc1ccc(Nc2nc(-c3cnccn3)cs2)cc1C(F)(F)F` [compound 156, N-(3-(trifluoromethyl)-4-(pentyloxy)phenyl)-4-(pyrazin-2-yl)thiazol-2-amine], the EC50 was under 1 µM.

Take `CCCCCOc1ccc(N(C)c2nc(-c3cccnc3)cs2)cc1C(F)(F)F` [compound 157, N-(3-(trifluoromethyl)-4-(pentyloxy)phenyl)-N-methyl-4-(pyridin-3-yl)thiazol-2-amine]: the EC50 is under 1 µM.

For the compound `CCCCCOc1ccc(N(C)c2nc(C(=O)O)cs2)cc1C(F)(F)F` [compound 158, 2-(N-(3-(trifluoromethyl)-4-(pentyloxy)phenyl)-N-methylamino)thiazole-4-carboxylic acid], the EC50 was over 10 µM.

For `CCCCCOc1ccc(N(C)c2nc(C(=O)Nc3ccc(Cl)cc3)cs2)cc1C(F)(F)F` [compound 159, 2-(N-(3-(trifluoromethyl)-4-(pentyloxy)phenyl)-N-methylamino)-N-(4-chlorophenyl)thiazole-4-carboxamide], the EC50 was over 10 µM.

With `CCCCCOc1ccc(N(C)c2nc(C(=O)Nc3ccc(C#N)cc3)cs2)cc1C(F)(F)F` [compound 160, 2-(N-(3-(trifluoromethyl)-4-(pentyloxy)phenyl)-N-methylamino)-N-(4-cyanophenyl)thiazole-4-carboxamide], the EC50 is over 10 µM.

In the case of `CCCCCOc1ccc(Nc2nc(C(N)CC(C)C)cs2)cc1C(F)(F)F` (centres unmarked) [compound 161, 4-(1-amino-3-methylbutyl)-N-(3-(trifluoromethyl)-4-(pentyloxy)phenyl)thiazol-2-amine], the EC50 was in the range of 1 to 10 µM.

Regarding `CCCCCOc1ccc(N(C)c2nc(C(=O)Nc3cccnc3)cs2)cc1C(F)(F)F` [compound 162, 2-(N-(3-(trifluoromethyl)-4-(pentyloxy)phenyl)-N-methylamino)-N-(pyridin-3-yl)thiazole-4-carboxamide], the EC50 was over 10 µM.

Turning to `CCCCCOc1ccc(Nc2ncc(C(=O)Nc3cccnc3)s2)cc1C(F)(F)F` [compound 163, 2-(3-(trifluoromethyl)-4-(pentyloxy)phenylamino)-N-(pyridin-3-yl)thiazole-5-carboxamide], the EC50 is under 1 µM.

As to `COc1ccc(OC)c(Nc2nc(-c3c(C)nc4sccn34)cs2)c1` [compound 164, N-(2,5-dimethoxyphenyl)-4-(6-methylimidazo[2,1-b]thiazol-5-yl)thiazol-2-amine], the EC50 is over 10 µM.

For the compound `COc1ccc(Nc2nc(-c3c(C)nc4sccn34)cs2)cc1` [compound 165, N-(4-methoxyphenyl)-4-(6-methylimidazo[2,1-b]thiazol-5-yl)thiazol-2-amine], the EC50 is under 1 µM.

Consider `CC(=O)c1cccc(Nc2nc(-c3c(C)nc4cc(C)ccn34)cs2)c1` [compound 167, 1-(3-(4-(2,7-dimethylH-imidazo[1,2-a]pyridin-3-yl)thiazol-2-ylamino)phenyl)ethanone], for which the EC50 was over 10 µM.

Take `Cc1c(-c2csc(Nc3ccccc3)n2)sc2ncnn12` [compound 168, 4-(6-methylthiazolo[3,2-b][1,2,4]triazol-5-yl)-N-phenylthiazol-2-amine]: the EC50 lay in the range of 1 to 10 µM.

Turning to `COc1ccc(-c2csc(Nc3ccc4c(c3)OCO4)n2)cc1F` [compound 169, N-(benzo[d][1,3]dioxol-5-yl)-4-(3-fluoro-4-methoxyphenyl)thiazol-2-amine], the EC50 is over 10 µM.

For the compound `Cc1ccnc(Nc2nc(-c3c(C)nc4sccn34)cs2)c1` [compound 170, 4-methyl-N-(4-(6-methylimidazo[2,1-b]thiazol-5-yl)thiazol-2-yl)pyridin-2-amine], the EC50 was over 10 µM.

On to `CCCCCOc1ccc(Nc2nc(CN3CCOCC3)cs2)cc1C(F)(F)F` [compound 171, N-(3-(trifluoromethyl)-4-(pentyloxy)phenyl)-4-(morpholinomethyl)thiazol-2-amine], for which the EC50 is under 1 µM.

As to `CCCCCOc1ccc(Nc2nc(CN(C)C)cs2)cc1C(F)(F)F` [compound 172, 4-((dimethylamino)methyl)-N-(3-(trifluoromethyl)-4-(pentyloxy)phenyl)thiazol-2-amine], the EC50 is under 1 µM.

Turning to `CCCCCOc1ccc(N(C(C)=O)c2nc(C(=O)Nc3cccnc3)cs2)cc1C(F)(F)F` [compound 173, 2-(N-(3-(trifluoromethyl)-4-(pentyloxy)phenyl)acetamido)-N-(pyridin-3-yl)thiazole-4-carboxamide], the EC50 was over 10 µM.

Source of the values: US8088806B2 (Achillion Pharmaceuticals, Inc., priority 2005, dated 2012).
